Where two headings read alike, the source gives them in different places.
Experiments:
PPO2 wild-type = PPO2 wild-type (Amaranthus tuberculatus, UniProt Q0NZW9); test: in vitro inhibition assay, recombinant PPO2 enzyme; assay type: biochemical
E. coli hemG strain = test: E. coli hemG growth assay (strain sensitivity); assay type: cell-based, Escherichia coli; conditions: data not shown; probably impaired uptake or hydrolysis
[1] = target: T1, PPO2 wild-type in Escherichia coli hemG (Amaranthus tuberculatus, UniProt Q0NZW9); assay type: cell-based; conditions: read-out: IC50 (E. coli hemG growth)
T1 sequence (Q0NZW9 31-534): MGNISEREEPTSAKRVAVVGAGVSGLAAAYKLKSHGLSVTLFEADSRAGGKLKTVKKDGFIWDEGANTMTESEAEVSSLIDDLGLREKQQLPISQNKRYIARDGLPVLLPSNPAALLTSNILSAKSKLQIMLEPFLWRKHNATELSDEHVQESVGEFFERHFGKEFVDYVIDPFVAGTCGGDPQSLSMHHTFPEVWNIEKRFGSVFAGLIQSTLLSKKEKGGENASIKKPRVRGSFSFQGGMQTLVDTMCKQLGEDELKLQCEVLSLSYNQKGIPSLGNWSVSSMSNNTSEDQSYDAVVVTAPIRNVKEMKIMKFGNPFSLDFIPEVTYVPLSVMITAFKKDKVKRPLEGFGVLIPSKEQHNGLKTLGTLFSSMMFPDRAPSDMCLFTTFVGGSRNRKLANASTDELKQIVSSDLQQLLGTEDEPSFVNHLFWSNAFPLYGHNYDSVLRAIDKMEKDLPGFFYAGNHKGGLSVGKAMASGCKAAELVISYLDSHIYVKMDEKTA

[2] = target: T2, PPO2 ΔG210 in Escherichia coli hemG (Amaranthus tuberculatus, UniProt Q0NZW9, DEL210-210, cells depend on it); assay type: cell-based; conditions: read-out: IC50 (E. coli hemG growth)
T2 sequence (Q0NZW9 with tags, fused parts or gaps DEL210-210): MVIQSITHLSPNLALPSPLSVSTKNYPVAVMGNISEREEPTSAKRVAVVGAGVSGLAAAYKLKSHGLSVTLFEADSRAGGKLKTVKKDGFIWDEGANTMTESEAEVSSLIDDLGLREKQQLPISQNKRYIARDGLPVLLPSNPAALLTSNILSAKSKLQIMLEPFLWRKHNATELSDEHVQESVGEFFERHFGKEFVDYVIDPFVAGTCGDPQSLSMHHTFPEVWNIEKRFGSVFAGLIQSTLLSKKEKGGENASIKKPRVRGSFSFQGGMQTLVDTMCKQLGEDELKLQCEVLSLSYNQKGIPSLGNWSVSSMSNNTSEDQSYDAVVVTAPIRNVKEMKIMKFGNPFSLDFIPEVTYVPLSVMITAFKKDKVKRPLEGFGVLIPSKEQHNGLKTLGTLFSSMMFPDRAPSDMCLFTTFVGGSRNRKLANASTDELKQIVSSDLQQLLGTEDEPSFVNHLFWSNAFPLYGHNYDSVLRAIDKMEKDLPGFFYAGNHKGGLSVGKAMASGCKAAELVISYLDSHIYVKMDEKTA

[3] = test system: T1 35S::AMATU PPO2 R128A ΔG210 Arabidopsis lines; test: herbicide treatment of transgenic Arabidopsis T1 lines; assay type: in vivo, Arabidopsis thaliana; conditions: foliar-applied 2×, 1×, 0.5× field dose, 7 days after treatment
[4] = test system: T1 35S::AMATU PPO2 R128M ΔG210 Arabidopsis lines; test: as above; assay type: in vivo, Arabidopsis thaliana; conditions: foliar-applied 2×, 1×, 0.5× field dose, 7 days after treatment
[5] = test system: T1 35S::AMATU PPO2 R128I ΔG210 Arabidopsis lines; test: as above; assay type: in vivo, Arabidopsis thaliana; conditions: foliar-applied 2×, 1×, 0.5× field dose, 7 days after treatment
[6] = test system: T1 35S::AMATU PPO2 R128N ΔG210 Arabidopsis lines; test: as above; assay type: in vivo, Arabidopsis thaliana; conditions: foliar-applied 2×, 1×, 0.5× field dose, 7 days after treatment
[7] = test system: T1 35S::AMATU PPO2 R128T ΔG210 Arabidopsis lines; test: as above; assay type: in vivo, Arabidopsis thaliana; conditions: foliar-applied 2×, 1×, 0.5× field dose, 7 days after treatment
[8] = test system: PPO1 enzyme carrying A212T mutation; design: method as in PMID 31788953; conditions: cited from earlier work
[9] = Wild-type PPO2, recombinant protein activity in vitro

In the case of CS(=O)(=O)NC(=O)c1cc(Oc2ccc(C(F)(F)F)cc2Cl)ccc1[N+](=O)[O-] [Fomesafen, fomesafen], the IC50 (PPO2 wild-type; [9]) is reported as 7.13 nM and the “sensitivity of E. coli hemG strain” value (E. coli hemG strain) is reported as “not sensitive”.

Work on CCOC(=O)C(C)OC(=O)c1cc(Oc2ccc(C(F)(F)F)cc2Cl)ccc1[N+](=O)[O-] (stereo not shown) [Lactofen, lactofen] yielded an IC50 (PPO2 wild-type; [9]) of 0.415 nM, an IC50 [1] of 62.4 nM and an IC50 [2] of 357 nM.

Work on CC(C)N(C)S(=O)(=O)NC(=O)c1cc(-n2c(=O)cc(C(F)(F)F)n(C)c2=O)c(F)cc1Cl [Saflufenacil, saflufenacil] yielded an IC50 (PPO2 wild-type; read-out: IC50) of 1.89 nM, an IC50 [1] of 31.9 nM and an IC50 [2] of 2120 nM. The “herbicide efficacy, visual assessment of plant growth” value (“herbicide efficacy, visual assessment” below) [3] was “two T1 lines expressing R128A ΔG210 showed significant resistance at each applied rate” and the “herbicide efficacy, visual assessment” value [4] was “few T1 plants showed persistent growth with saflufenacil at the 2× and 0.5× rate”.

C#CCN1C(=O)C(F)(F)Oc2cc(F)c(-n3c(=O)n(C)c(=S)n(C)c3=O)cc21 [Trifludimoxazin, trifludimoxazin] showed an IC50 (PPO2 wild-type; Wild-type PPO2, recombinant protein activity in vitro, read-out: IC50) of 0.245 nM, an IC50 [1] of 0.927 nM and an IC50 [2] of 1.18 nM. The “herbicide efficacy, visual assessment” value [3] was “reduced plant growth at 2×, 1× and 0.5× the rate of all five T1 plants”, the “herbicide efficacy, visual assessment” value [5] was “more controlled by trifludimoxazin than saflufenacil at all the used rates” and the “herbicide efficacy, visual assessment” value [6] was “more reduced by trifludimoxazin than saflufenacil at each rate”. For the same molecule, the “herbicide efficacy, visual assessment” value [7] was “more reduced by trifludimoxazin than saflufenacil at each rate”, the “herbicide efficacy, visual assessment” value [4] was “reduced by both trifludimoxazin and saflufenacil at 1×” and the “inhibition of PPO1 A212T enzyme” value [8] was “fully inhibit”.
